Consider eight compounds from patent US11273206B2, “Targeting of pharmaceutical agents to pathologic areas using bifunctional fusion polypeptides” (Counterpoint Biomedica LLC, priority 2014, dated 2022).

The subject of one data set is subcutaneous tumors. Briefly: Tumor targeting of FITC-labeled collagen-binding construct after intravenous infusion. The following applies: intravenous infusion into the tail vein of nude mice; FIGS. 3C-3D. The class given is in vivo.
Data set [1] has as its system Locally Recurrent or Metastatic Breast Cancer. The conditions noted are these: Phase III, once per week; cited from earlier work.
The subject of data set [2] is subcutaneous human pancreatic cancer xenografts. The following applies: paclitaxel without aptamer; cited from earlier work.
The test system is the same in data set [3].
For a further data set, the system named is collagen agarose beads. As to the kind of experiment: Collagen-agarose column chromatography of mAb-aptamers with fluorescent Rabbit-Anti-Human Abs. It is filed as binding. The following applies: FIG. 7B.
Data set [4] can be described thus: Serum stability (resistance to proteolysis) of mAb-aptamers. It is filed as in vitro ADME. The conditions noted are these: FIG. 7C. The source says:
The serum stability (resistance to proteolysis) of mAb-Aptamer 1, mAb-Aptamer 2 and mAb-Aptamer 4 were further analyzed.

Data set [5] deals with Collagen-Agarose beads. As to the kind of experiment: Collagen-agarose column chromatography of FITC-labeled collagen-binding constructs. The conditions noted are these: increasing amounts applied to Collagen-Agarose beads, in vitro; FIG. 3B. From the text: Three fluorescein isothiocyanate (FITC)-labeled collagen-binding constructs were generated and tested. Construct 1 (ac-L1/XC-BD1/L3/FITC) had the sequence of Ac-RRGVHVGWREPSFMALSMPHGGSGK-(FITC) (SEQ ID NO: 45); Construct 2(ac-L1/XC-BD2/L3/FITC) had the sequence of Ac-RRGVHVGWREPGRMELNMPHGGSGK-(FITC) (SEQ ID NO: 46); Construct 3 (ac-L2/XC-BD2/L3/FITC) had the sequence of Ac-RRGVRVAWREPGRMELNMPHGGSGK-(FITC) (SEQ ID NO: 47). […] Increasing amounts of these constructs were applied to the chromatography columns of Collagen-Agarose beads, followed by successive washes with (1) PBS, (2) PBS/PBS, Tween-20, BSA. The retention of the constructs to the column was documented by use of a blue-light transilluminator with an amber filter; quantitative data was obtained with a Quantus fluorometer.

Data set [6] in a line: Serum stability (resistance to proteolysis) of Tx-Apts. The class given is in vitro ADME. The following applies: FIG. 4C.
Data set [7] deals with Collagen-Agarose beads. As to the kind of experiment: Collagen-agarose chromatography of RNA-Apts with Oregon Green 488 labeled oligonucleotides. The class given is binding. The following applies: for retention of labeled oligonucleotides on collagen-agarose mini-columns: FIG. 10C; for depletion of fluorescently labeled oligonucleotides from the column eluates: increasing amounts of RNA-Apt, FIG. 10B. How it is done:
Short oligonucleotides labeled with Oregon Green 488 were incubated with increasing amounts of RNA-Apt 07 or RNA-Apt 08 in PBS for 30 min at 30° C. and then applied to the chromatography column of collagen-agarose beads, followed by successive washes with (1) PBS, (2) PBS/PBS, Tween-20, BSA. The retention to the column was documented by use of a blue-light transilluminator with an amber filter; quantitative data was obtained with a Quantus fluorometer.

Where a SMILES comes first, the peptide text is derived from it. Primed or numbered codes have the meaning given here. Where no end group is shown, it is not given here. [ ]: non-standard residue; d: D form. The star is where a group is joined. FITC = O=C1OC2(c3ccc(O)cc3Oc3cc(O)ccc32)c2ccc(NC(=S)*)cc21; FITC′ = fluorescein isothiocyanate label; PEG = not defined here

For `CSCC[C@H](NC(=O)[C@H](CCCNC(=N)N)NC(=O)CNC(=O)[C@@H]1CCCN1C(=O)[C@H](CCC(=O)O)NC(=O)[C@H](CCCNC(=N)N)NC(=O)[C@H](Cc1c[nH]c2ccccc12)NC(=O)CNC(=O)[C@@H](NC(=O)[C@H](Cc1c[nH]cn1)NC(=O)[C@@H](NC(=O)CNC(=O)[C@H](CCCNC(=N)N)NC(=O)[C@H](CCCNC(=N)N)NC(C)=O)C(C)C)C(C)C)C(=O)N[C@@H](CCC(=O)O)C(=O)N[C@@H](CC(C)C)C(=O)N[C@@H](CC(N)=O)C(=O)N[C@@H](CCSC)C(=O)N1CCC[C@H]1C(=O)N[C@@H](Cc1c[nH]cn1)C(=O)NCC(=O)NCC(=O)N[C@@H](CO)C(=O)NCC(=O)N[C@@H](CCCCNC(=S)Nc1ccc2c(c1)C(=O)OC21c2ccc(O)cc2Oc2cc(O)ccc21)C(=O)O` [Construct 2, Ac-RRGVHVGWREPGRMELNMPHGGSGK-(FITC)] (Ac-RRGVHVGWREPGRMELNMPHGGSGK(FITC)-OH), in the data set with subcutaneous tumors, the “targeting to subcutaneous tumors (fluorescence)” value is “efficiently targeted to subcutaneous tumors”.
With `CC(=O)O[C@H]1C(=O)[C@@]2(C)[C@H]([C@H](OC(=O)c3ccccc3)[C@]3(O)C[C@H](OC(=O)[C@H](O)[C@@H](NC(=O)c4ccccc4)c4ccccc4)C(C)=C1C3(C)C)[C@]1(OC(C)=O)CO[C@@H]1C[C@@H]2O` [paclitaxel], in data set [1], the “clinical performance compared with Abraxane” value is given as “just as good or better than Abraxane” and the “toxicity compared with Abraxane” value is “significantly less toxicity”. In data set [2], the “normal effective dose of paclitaxel in mice” value is on record as 10 mg/kg. For the same compound, the “active dose as fraction of the low metronomic doses commonly used” value in data set [3] (targeted paclitaxel treated mice) was 1/10. Further, the “active dose as fraction of the normal effective dose of paclitaxel in mice” value in data set [3] (used with Taxol-aptamer) was 1/50. Further, in [3] (used with Taxol-aptamer, FIG. 6C), the “dose at which paclitaxel exhibited anti-angiogenic activity” value was 0.2 mg/kg.
On to “(PEG)-[C-A-R-R-G-V-H-V-G]-W-R-E-P-G-R-M-E-L-N-M-P-H-[G-G-S-G-G]-H-W-R-G-W-V-A-[G-G-S-G-G]-H-W-R-G-W-V-A-p-t ({PEG}-CARRGVHVGWREPGRMELNMPHGGSGGHWRGWVAGGSGGHWRGWVA[dP][dT]; reading uncertain; also: printed as (PEG)-[C-A-R-R-G-V-H-V-G]-W-R-E-P-G-R-M-E-L-N-M-P-H-[G-G-S-G-G]-H-W-R-G-W-V-A-[G-G-S-G-G]-H-W-R-G-W-V-A-p-t) [mAb-Aptamer 4]”, for which the “binding of antibodies to the collagen beads” value in the data set with collagen agarose beads is “higher binding”. Further, the “serum stability (resistance to proteolysis)” value in [4] is on record as “greatest serum stability”.
As for “Ac-RRGVHVGWREPSFMALSMPHGGSGK-(FITC) (Ac-RRGVHVGWREPSFMALSMPHGGSGK(FITC′)) [Construct 1]”, the “binding to collagen (retention of the constructs to the column)” value in the data set with Collagen-Agarose beads [5] is “bound to collagen in a dose dependent manner”.
As to “Ac-[dR][dR]GVHVGWREPGRMELNMPHGGSGRGVGIMKACGRTRHTVR[dM]G (N-terminus assumed) [Tx-Apt2, Ac-[r-r-G-V-H-V-G]-W-R-E-P-G-R-M-E-L-N-M-P-H-[G-G-S-G]-R-G-V-G-I-M-K-A-C-G-R-T-R-H-T-V-R-m-G]”, the “serum stability (resistance to proteolysis) over time” value in data set [6] is “most stable”.
With “RRGVHVGWREPSFMALSMPHGGRRRRRRRRR [RNA-Apt 08]”, in the data set on Collagen-Agarose beads [7], the “retention of labeled oligonucleotides on collagen-agarose mini-columns” value is listed as “retaining the labeled oligonucleotides on the collagen-agarose mini-columns” and the “depletion of fluorescently labeled oligonucleotides from the column eluates” value is recorded as “depleted fluorescently labeled-oligonucleotides from the eluates”.
The matching figures for “RRRRRRRRRRRGVHVGWREPSFMALSMPHGG [RNA-Apt 07]”: “retaining the labeled oligonucleotides on the collagen-agarose mini-columns” and “depleted fluorescently labeled-oligonucleotides from the eluates”.
Regarding “r-r-GVHVGWREPGRMELNMPHGGSGGHWRGWVAGGSGGHWRGWV-a-a ([dR][dR]GVHVGWREPGRMELNMPHGGSGGHWRGWVAGGSGGHWRGWV[dA][dA]) [mAb-Aptamer 2]”, the “binding of antibodies to the collagen beads” value in the data set with collagen agarose beads is on record as “higher binding”.
